Several values for one entry are separate records, joined by “and”; a condition that tells them apart may be missing. Equal entries are not always repeated.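 Interpolation was linear, between the two tested concentrations surrounding the appropriate level; five concentrations were tested over 48 hours in 96-well plates. The concentration for 50% growth inhibition is given as GI50. TGI: concentration producing complete growth inhibition.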
Tests used:
Experiment in all cases: inhibition of tumour cell growth, NCI panel, 48 h
SF-539 CNS = system: SF-539 CNS
A549 NSCLC = system: A549 NSCLC
CCRF-CEM leukemia = system: CCRF-CEM leukemia
T-47D breast = system: T-47D breast
HL-60(TB) leukemia = system: HL-60(TB) leukemia
NCI-H460 lung = system: NCI-H460 lung
OVCAR-3 ovarian = system: OVCAR-3 ovarian
MOLT-4 leukemia = system: MOLT-4 leukemia
RPMI-8226 leukemia = system: RPMI-8226 leukemia
HOP-92 NSCLC = system: HOP-92 NSCLC

SMILES	GI50 (SF-539 CNS) [µM]	TGI (SF-539 CNS)	GI50 (A549 NSCLC) [µM]	TGI (A549 NSCLC)	GI50 (CCRF-CEM leukemia) [µM]	TGI (CCRF-CEM leukemia)	GI50 (T-47D breast) [µM]	TGI (T-47D breast) [µM]	GI50 (HL-60(TB) leukemia) [µM]	TGI (HL-60(TB) leukemia)	GI50 (NCI-H460 lung) [µM]	TGI (NCI-H460 lung)	GI50 (OVCAR-3 ovarian) [µM]	TGI (OVCAR-3 ovarian)	GI50 (MOLT-4 leukemia) [µM]	TGI (MOLT-4 leukemia)	GI50 (RPMI-8226 leukemia) [µM]	TGI (RPMI-8226 leukemia)	GI50 (HOP-92 NSCLC) [µM]	TGI (HOP-92 NSCLC)
O=C(Nc1ccccc1O)c1cccc(NC2=C(Cl)C(=O)N(Cc3ccccc3)C2=O)c1	10.7	25.4 µM	12.4	24.8 µM	< 0.0179	3.85 µM	8.06	28.6	1.5	8.5 µM	4.22	14.9 µM	2.62	7.85 µM	0.712	4.01 µM	0.778	3.4 µM	10.5	24.3 µM
CC[C@@H](C(=O)[C@@H](C)[C@@H](O)[C@H](C)[C@@H]1O[C@@H]([C@@H](CC)C(=O)O)CC[C@@H]1C)C1O[C@]2(C=CC(=O)[C@]3(CC[C@@](C)([C@H]4CC[C@](O)(CC)[C@H](C)O4)O3)O2)[C@H](C)C[C@@H]1C (some centres not stated)	0.334	10.4 µM	0.342	22.7 µM	0.278	9.3 µM	0.0596	17.3	0.0399	0.332 µM	0.408	11.3 µM	0.0547	12.5 µM	1.42	6.3 µM	0.0868	4.81 µM	1.33	8.02 µM
CCN(CC)CCCC(C)Nc1cnc(C(=O)Nc2ccc(Cl)c3cccnc23)cn1 (configuration not stated)	1.71	3.12 µM	2.71	11.8 µM	0.484	2.27 µM	1.21	2.97	1.77	3.54 µM	2.64	6.8 µM	2.01	3.97 µM	1.33	3.3 µM	1.74	3.92 µM	1.18	2.82 µM
CCC(C)(C)C(=O)O[C@H]1C[C@@H](C)C=C2C=C[C@H](C)[C@H](CC[C@@H]3C[C@@H](O)CC(=O)O3)[C@H]21	11.3	24.8 µM and > 30 µM	6.79	20.4 µM and 18.8 µM	–	30.2 µM and > 30 µM	11.9	28.2	6.02	20.8 µM and > 30 µM	3.91	14.1 µM and > 30 µM	8.77	21.4 µM and > 30 µM	14.6	31.7 µM and > 30 µM	3.79	28.5 µM and > 30 µM	0.0335	–
Cn1ccnc1C(=O)/C=C/c1ccc(C(=O)Nc2ccc(Cl)cc2)cc1	0.626	1.42 µM	0.951	> 33.3 µM	0.783	2.71 µM	0.846	> 33.3	0.669	1.97 µM	0.747	2 µM	0.91	3.16 µM	0.81	2.43 µM	0.431	1.35 µM	1.14	27 µM
COC(=O)NC1C(C)OC(OC2C/C=C(/C)C3C=CC4C(OC5CC(OC6CC(O)C(OC7CC(O)C(OC)C(C)O7)C(C)O6)C(O)C(C)O5)C(C)CC(C)C4C3(C)/C(O)=C3\C(=O)OC4(CC(C)C(CO)=CC4/C=C\2C)C3=O)CC1(C)[N+](=O)[O-] (configuration not stated)	11.6	24.9 µM and 37.7 µM	25.7	50 µM and 58.5 µM	9.71	36.8 µM and 23.6 µM	–	31.8	7.94	21.3 µM and 24.2 µM	8.33	18.4 µM and 30.5 µM	9.64	21 µM and 19.4 µM	18.2	50 µM and 20.2 µM	15.7	50 µM and 26.9 µM	9.95	19.7 µM and 32.7 µM
CC(=O)N1N=C2/C(=C/c3ccccc3)CC(C)CC2C1c1ccccc1 (configuration not stated)	17.4	32.7 µM	13.3	51.5 µM	15.5	53.9 µM	10.7	34.7	8.82	32.1 µM	13	27.8 µM	14.9	32.6 µM	8.72	28.1 µM	9.54	76.1 µM	13.9	31.2 µM
c1ccc(Cn2cc3c(c2-c2ccccc2)CCc2cnoc2-3)cc1	5.34	38.9 µM	5.73	> 100 µM	3.59	> 100 µM	4.5	> 100	1.75	4.09 µM	3.41	22.1 µM	3.73	24.7 µM	2.19	6.98 µM	3.1	> 100 µM	18	> 100 µM
O=C1CC(c2ccc(N3CCOCC3)cc2)(c2ccsc2)NC(=O)C1Sc1ccccc1Cl (configuration not stated)	56.4	> 100 µM	> 100	> 100 µM	6	> 100 µM	85.9	> 100	> 100	> 100 µM	13.5	> 100 µM	67	> 100 µM	46.9	> 100 µM	31.6	> 100 µM	11.8	> 100 µM
CC1=C(C(=O)Nc2ccc(F)c(Cl)c2)C(c2ccccc2Cl)NC(=S)N1 (configuration not stated)	> 50	> 50 µM	24.8	> 50 µM	> 50	> 50 µM	> 50	> 50	25.6	> 50 µM	23.7	> 50 µM	39.5	> 50 µM	> 50	> 50 µM	38.3	> 50 µM	> 50	> 50 µM
COc1ccccc1OCC(=O)Nc1sc2c(c1C(N)=O)CCC2	> 100	> 100 µM	32.4	> 100 µM	> 100	> 100 µM	> 100	> 100	> 100	> 100 µM	> 100	> 100 µM	> 100	> 100 µM	> 100	> 100 µM	> 100	> 100 µM	> 100	> 100 µM
COc1cccc(C2c3cc4c(cc3OC(C)(O)C2C)OCO4)c1O (configuration not stated)	–	8.65 µM	–	66.6 µM	–	33.8 µM	–	13.1	–	28 µM	–	30.6 µM	–	8.48 µM	–	> 66.2 µM	–	> 100 µM	–	47.3 µM
COc1cc(C(=O)c2ccc3c(c2)OCO3)cc(OC)c1OC	1.95	7.52 µM	6.03	> 100 µM	2.46	> 75.3 µM	5.3	> 100	0.609	9.02 µM	2.55	> 100 µM	1.4	3.93 µM	2.72	> 75.1 µM	2.64	> 42 µM	2.48	> 100 µM
CC[C@H](C)[C@H]1NC(=O)[C@@H](N[C@](C)(O)[C@@H](N)CC(C)C)[C@@H](C)OC(=O)[C@H](Cc2ccc(OC)cc2)N(C)C(=O)[C@@H]2CCCN2C(=O)[C@H](CC(C)C)NC(=O)[C@@H](C)C(=O)[C@H](C(C)C)OC(=O)C[C@@H]1O	0.0165	0.185 µM	0.0115	0.47 µM	0.0113	0.232 µM	0.00897	0.301	0.0218	0.281 µM	0.011	0.572 µM	0.0178	0.232 µM	0.0133	0.575 µM	0.0347	0.177 µM	0.0262	0.391 µM
COc1cc(-c2nc(Nc3nc4ccccc4[nH]3)nc(N)c2C#N)cc(OC)c1OC	10.7	36.2 µM	30.7	> 100 µM	6.17	> 100 µM	4.27	52.8	0.991	> 100 µM	1.77	> 54.2 µM	0.286	3.61 µM	18.2	> 100 µM	12.5	> 100 µM	0.341	31.8 µM

Source: PubChem BioAssay (NCI)
